Assay results taken from paper PMC6361113 (Cancer chemotherapy and pharmacology, 2017).
Several values for one entry are separate records, joined by “and”; a condition that tells them apart may be missing. Identical values can stand only once. Like-named read-outs stand apart in the source and are kept apart here.

Legend:
[1] = cited from earlier work
[2] = cited from earlier work; remark: listed apart in the source
[3] = Population pharmacokinetic; format: in vivo, human
[4] = cited from earlier work; remark: listed apart in the source
[5] = format: in vivo, human
blood/PMBCs = conditions: in vitro; cited from earlier work
[6] = cited from earlier work; remark: listed apart in the source
[7] = olaparib tablets 200 mg, noncompartmental; cited from earlier work
[8] = cited from earlier work; remark: listed apart in the source
[9] = cited from earlier work; remark: listed apart in the source
[10] = 400 mg capsule dose, estimated range
[11] = 400 mg capsule dose, typical averages
[12] = patients with CLcr = 50–80 mL/min, prescribing information
[13] = prescribing information, 400 mg BID capsules
[14] = final population PK model, inter-individual variability
[15] = olaparib monotherapy, clinical trials
[16] = this study, carboplatin pre-treatment
[17] = n = 4, ref unpublished findings from the drug sponsor (NCT00516724)
[18] = ref unpublished findings from the drug sponsor

In the case of `N.N.O=C([O-])C1(C(=O)[O-])CCC1.[Pt+2]` [carboplatin], the terminal plasma half-life [1] is listed as 2 to 3 h, the plasma protein binding ([1]; human, in vivo) is listed as “not plasma protein bound” and the “dose excreted within 12 h” value ([1]; patients with normal renal function (CLcr > 60 mL/min)) is listed as 65%.

In the case of `O=C(c1cc(Cc2n[nH]c(=O)c3ccccc23)ccc1F)N1CCN(C(=O)C2CC2)CC1` [olaparib], the clearance [2, 10] is listed as 7.0 to 10.8 L/h, the volume of distribution [2, 10] is listed as 107 to 210 L and the AUC [2, 11] is listed as 10000 to 70000 ng·h/mL. For the same compound, the CMax [2, 11] was 1 to 6.4 µg/mL, the “CL/F, other literature value” [2] was 4.6 L/h and the “V/F, other literature value” [2] was 40.3 L. For the same compound, the half-life ([2]; elimination rate calculated over a 72-h period) was 12 h, the “increase in olaparib AUC in mild renal impairment” value [2, 12] was 1.2 fold and the “increase in olaparib CMAX in mild renal impairment” value [2, 12] was 1.5 fold. For the same compound, the “apparent plasma CL/F” value [2, 13] was 8.6 (±7.1) L/h, the “apparent volume of distribution at steady-state (Vss/F)” value [2, 13] was 167 (±196) L and the AUC mean ([2]; tablet dose of 200 mg) was 43000 ng·h/mL. The CL/F mean ([2]; tablet dose of 200 mg) was 7.95 L/h, the CMAX mean ([2]; tablet dose of 200 mg) was 7 µg/mL and the V/F mean ([2]; tablet dose of 200 mg) was 146 L. For the same compound, the “IIV CL/F bootstrap estimate (%RSE)” value ([3]; bootstrap, 1000 replicates) was 57.0% (7.06%) %CV, the “IIV Tlag bootstrap estimate (%RSE)” value ([3]; bootstrap, 1000 replicates) was 70.7% (19.6%) %CV and the “IIV V/F bootstrap estimate (%RSE)” value ([3]; bootstrap, 1000 replicates) was 38.4% (9.78%) %CV. The “BSV on the CL/F parameter explained by carboplatin covariate” value ([3]; final covariate model) was about 2%, the “IIV CL/F point estimate (%RSE)” value ([3]; final population PK model, inter-individual (between-subject) variability) was 55.0% (7.98%) %CV and the “IIV Tlag point estimate (%RSE)” value [3, 14] was 87.1% (13.5%) %CV. For the same compound, the “IIV V/F point estimate (%RSE)” value [3, 14] was 37.3% (9.23%) %CV, the “change in volume of distribution relative to carboplatin pretreatment” value ([3]; in vivo) was “No change in volume of distribution” and the “correlation (r) of creatinine clearance with olaparib clearance” value ([3]; population model) was under 0.005. For the same compound, the “patients having hematologic toxicity” value ([4]; olaparib capsules combined with carboplatin, likely due to carboplatin) was 82%, the “grade 1–2 fatigue” value [4, 15] was about 30% and the “grade 1–2 nausea” value [4, 15] was about 32%. The “grade 1–2 vomiting” value [4, 15] was about 20%, the half-life ([5]; human, plasma, oral, 200 mg) was about 3 h and the “V/F, first 200 mg dose of olaparib alone” value ([5]; this study, Group A C1D1, before carboplatin) was 31.1 L. For the same compound, the “decrease in olaparib AUCLAST in presence of carboplatin” value [5, 16] was 1.3 fold, the “decrease in olaparib CMAX in presence of carboplatin” value [5, 16] was 1.2 fold and the “intracellular olaparib when blood/PMBCs were pretreated with carboplatin” value (blood/PMBCs) was “greater intracellular olaparib”. The “CL/F point estimate, previous population PK model” value ([6]; 100 mg olaparib tablets BID with cisplatin and gemcitabine, 23 advanced cancer patients) was 6.48 L/h and 6.5 L/h, the “V/F point estimate, previous population PK model” value ([6]; 100 mg olaparib tablets BID with cisplatin and gemcitabine, 23 patients) was 38.7 L and the “half-life of first dose olaparib, previous population PK model” value ([6]; 100 mg olaparib tablets BID with cisplatin and gemcitabine) was 4 h. The “absorption rate (Ka), previous population PK model” value ([6]; single compartment absorption model) was 2 h⁻¹, the “CL/F NCA estimate” value [7] was 6.08 L/h and the “change in olaparib plasma protein binding by carboplatin” value [8] was “no change in olaparib plasma protein binding”. The “lower olaparib CMAX with carboplatin pre-exposure” value [9, 17] was 14.8%, the “lower steady state olaparib AUC with carboplatin pre-exposure” value [9, 17] was 11.0% and the “lower olaparib AUC with carboplatin pre-exposure” value [9, 18] was 14%. The “lower olaparib CMAX with carboplatin pre-exposure” value [9, 18] was 17%.
